Tests used:
[1] = target: AP2-associated protein kinase 1 (Homo sapiens) (UniProt Q2M2I8); conditions: Compound concentration 1000.0 nM
[2] = system: Tyrosine-protein kinase ABL1 (Homo sapiens), P00519 [H396P]; conditions: Compound concentration 1000.0 nM
[3] = target: Activin receptor type-1-like (Homo sapiens) (UniProt P37023); conditions: Compound concentration 1000.0 nM
[4] = target: Cytoplasmic tyrosine-protein kinase BMX (Homo sapiens) (UniProt P51813); conditions: Compound concentration 1000.0 nM
[5] = target: Calcium/calmodulin-dependent protein kinase type 1G (Homo sapiens) (UniProt Q96NX5); conditions: Compound concentration 1000.0 nM
[6] = target: Calcium/calmodulin-dependent protein kinase type II subunit delta (Homo sapiens) (UniProt Q13557); conditions: Compound concentration 1000.0 nM
[7] = target: Calcium/calmodulin-dependent protein kinase kinase 1 (Homo sapiens) (UniProt Q8N5S9); conditions: Compound concentration 1000.0 nM
[8] = target: Cyclin-dependent kinase-like 2 (Homo sapiens) (UniProt Q92772); conditions: Compound concentration 1000.0 nM
[9] = target: Serine/threonine-protein kinase Chk2 (Homo sapiens) (UniProt O96017); conditions: Compound concentration 1000.0 nM
[10] = target: Citron Rho-interacting kinase (Homo sapiens) (UniProt O14578); conditions: Compound concentration 1000.0 nM
[11] = target: Serine/threonine-protein kinase DCLK2 (Homo sapiens) (UniProt Q8N568); conditions: Compound concentration 1000.0 nM
[12] = system: Epidermal growth factor receptor (Homo sapiens), P00533 [UNDEFINED MUTATION]; conditions: Compound concentration 1000.0 nM
[13] = system: Epidermal growth factor receptor (Homo sapiens), P00533 [T790M]; conditions: Compound concentration 1000.0 nM
[14] = target: Ephrin type-A receptor 5 (Homo sapiens) (UniProt P54756); conditions: Compound concentration 1000.0 nM
[15] = target: Ephrin type-A receptor 8 (Homo sapiens) (UniProt P29322); conditions: Compound concentration 1000.0 nM
[16] = target: Mitogen-activated protein kinase 7 (Homo sapiens) (UniProt Q13164); conditions: Compound concentration 1000.0 nM
[17] = target: Mitogen-activated protein kinase 15 (Homo sapiens) (UniProt Q8TD08); conditions: Compound concentration 1000.0 nM
[18] = target: Fibroblast growth factor receptor 3 (Homo sapiens) (UniProt P22607); conditions: Compound concentration 1000.0 nM
[19] = target: Fibroblast growth factor receptor 4 (Homo sapiens) (UniProt P22455); conditions: Compound concentration 1000.0 nM
[20] = target: Tyrosine-protein kinase Fgr (Homo sapiens) (UniProt P09769); conditions: Compound concentration 1000.0 nM
[21] = target: Homeodomain-interacting protein kinase 4 (Homo sapiens) (UniProt Q8NE63); conditions: Compound concentration 1000.0 nM
[22] = system: Mast/stem cell growth factor receptor Kit (Homo sapiens), P10721 [A829P]; conditions: Compound concentration 1000.0 nM
[23] = target: Serine/threonine-protein kinase 10 (Homo sapiens) (UniProt O94804); conditions: Compound concentration 1000.0 nM
[24] = target: Mitogen-activated protein kinase kinase kinase 15 (Homo sapiens) (UniProt Q6ZN16); conditions: Compound concentration 1000.0 nM
[25] = target: Mitogen-activated protein kinase kinase kinase kinase 3 (Homo sapiens) (UniProt Q8IVH8); conditions: Compound concentration 1000.0 nM
[26] = target: Serine/threonine-protein kinase MARK2 (Homo sapiens) (UniProt Q7KZI7); conditions: Compound concentration 1000.0 nM
[27] = target: Tyrosine-protein kinase Mer (Homo sapiens) (UniProt Q12866); conditions: Compound concentration 1000.0 nM
[28] = target: Mitogen-activated protein kinase 13 (Homo sapiens) (UniProt O15264); conditions: Compound concentration 1000.0 nM
[29] = target: Cyclin-dependent kinase 17 (Homo sapiens) (UniProt Q00537); conditions: Compound concentration 1000.0 nM
[30] = target: Cyclin-dependent kinase 18 (Homo sapiens) (UniProt Q07002); conditions: Compound concentration 1000.0 nM
[31] = target: Platelet-derived growth factor receptor beta (Homo sapiens) (UniProt P09619); conditions: Compound concentration 1000.0 nM
[32] = target: 3-phosphoinositide-dependent protein kinase 1 (Homo sapiens) (UniProt O15530); conditions: Compound concentration 1000.0 nM
[33] = system: Phosphatidylinositol 4,5-bisphosphate 3-kinase catalytic subunit alpha isoform (Homo sapiens), P42336 [E545K]; conditions: Compound concentration 1000.0 nM
[34] = system: Phosphatidylinositol 4,5-bisphosphate 3-kinase catalytic subunit alpha isoform (Homo sapiens), P42336 [H1047L]; conditions: Compound concentration 1000.0 nM
[35] = target: Serine/threonine-protein kinase pim-1 (Homo sapiens) (UniProt P11309); conditions: Compound concentration 1000.0 nM
[36] = target: Phosphatidylinositol 4-phosphate 5-kinase type-1 gamma (Homo sapiens) (UniProt O60331); conditions: Compound concentration 1000.0 nM
[37] = target: Phosphatidylinositol 5-phosphate 4-kinase type-2 gamma (Homo sapiens) (UniProt Q8TBX8); conditions: Compound concentration 1000.0 nM
[38] = target: Interferon-induced, double-stranded RNA-activated protein kinase (Homo sapiens) (UniProt P19525); conditions: Compound concentration 1000.0 nM
[39] = target: Receptor-interacting serine/threonine-protein kinase 2 (Homo sapiens) (UniProt O43353); conditions: Compound concentration 1000.0 nM
[40] = target: Ribosomal protein S6 kinase alpha-5 (Homo sapiens) (UniProt O75582); conditions: Compound concentration 1000.0 nM
[41] = target: Ribosomal protein S6 kinase alpha-2 (Homo sapiens) (UniProt Q15349); conditions: Compound concentration 1000.0 nM
[42] = target: Serine/threonine-protein kinase Sgk2 (Homo sapiens) (UniProt Q9HBY8); conditions: Compound concentration 1000.0 nM
[43] = target: Non-receptor tyrosine-protein kinase TYK2 (Homo sapiens) (UniProt P29597); conditions: Compound concentration 1000.0 nM
[44] = target: Serine/threonine-protein kinase 25 (Homo sapiens) (UniProt O00506); conditions: Compound concentration 1000.0 nM
[45] = target: 5-hydroxytryptamine receptor 2C (Homo sapiens) (UniProt P28335); conditions: Compound concentration 10.0 uM

Sequence of Mitogen-activated protein kinase 13 (Homo sapiens) (O15264 whole entry): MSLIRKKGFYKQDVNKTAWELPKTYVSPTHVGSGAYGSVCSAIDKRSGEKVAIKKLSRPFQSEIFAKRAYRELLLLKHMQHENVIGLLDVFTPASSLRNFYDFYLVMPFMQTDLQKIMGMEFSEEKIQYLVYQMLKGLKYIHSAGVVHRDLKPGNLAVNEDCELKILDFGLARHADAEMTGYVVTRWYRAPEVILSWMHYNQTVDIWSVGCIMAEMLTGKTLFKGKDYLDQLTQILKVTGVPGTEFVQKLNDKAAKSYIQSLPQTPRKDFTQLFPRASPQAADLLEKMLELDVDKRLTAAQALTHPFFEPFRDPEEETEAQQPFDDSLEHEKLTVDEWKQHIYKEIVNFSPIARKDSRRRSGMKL
Sequence of Mitogen-activated protein kinase kinase kinase 15 (Homo sapiens) (Q6ZN16 whole entry): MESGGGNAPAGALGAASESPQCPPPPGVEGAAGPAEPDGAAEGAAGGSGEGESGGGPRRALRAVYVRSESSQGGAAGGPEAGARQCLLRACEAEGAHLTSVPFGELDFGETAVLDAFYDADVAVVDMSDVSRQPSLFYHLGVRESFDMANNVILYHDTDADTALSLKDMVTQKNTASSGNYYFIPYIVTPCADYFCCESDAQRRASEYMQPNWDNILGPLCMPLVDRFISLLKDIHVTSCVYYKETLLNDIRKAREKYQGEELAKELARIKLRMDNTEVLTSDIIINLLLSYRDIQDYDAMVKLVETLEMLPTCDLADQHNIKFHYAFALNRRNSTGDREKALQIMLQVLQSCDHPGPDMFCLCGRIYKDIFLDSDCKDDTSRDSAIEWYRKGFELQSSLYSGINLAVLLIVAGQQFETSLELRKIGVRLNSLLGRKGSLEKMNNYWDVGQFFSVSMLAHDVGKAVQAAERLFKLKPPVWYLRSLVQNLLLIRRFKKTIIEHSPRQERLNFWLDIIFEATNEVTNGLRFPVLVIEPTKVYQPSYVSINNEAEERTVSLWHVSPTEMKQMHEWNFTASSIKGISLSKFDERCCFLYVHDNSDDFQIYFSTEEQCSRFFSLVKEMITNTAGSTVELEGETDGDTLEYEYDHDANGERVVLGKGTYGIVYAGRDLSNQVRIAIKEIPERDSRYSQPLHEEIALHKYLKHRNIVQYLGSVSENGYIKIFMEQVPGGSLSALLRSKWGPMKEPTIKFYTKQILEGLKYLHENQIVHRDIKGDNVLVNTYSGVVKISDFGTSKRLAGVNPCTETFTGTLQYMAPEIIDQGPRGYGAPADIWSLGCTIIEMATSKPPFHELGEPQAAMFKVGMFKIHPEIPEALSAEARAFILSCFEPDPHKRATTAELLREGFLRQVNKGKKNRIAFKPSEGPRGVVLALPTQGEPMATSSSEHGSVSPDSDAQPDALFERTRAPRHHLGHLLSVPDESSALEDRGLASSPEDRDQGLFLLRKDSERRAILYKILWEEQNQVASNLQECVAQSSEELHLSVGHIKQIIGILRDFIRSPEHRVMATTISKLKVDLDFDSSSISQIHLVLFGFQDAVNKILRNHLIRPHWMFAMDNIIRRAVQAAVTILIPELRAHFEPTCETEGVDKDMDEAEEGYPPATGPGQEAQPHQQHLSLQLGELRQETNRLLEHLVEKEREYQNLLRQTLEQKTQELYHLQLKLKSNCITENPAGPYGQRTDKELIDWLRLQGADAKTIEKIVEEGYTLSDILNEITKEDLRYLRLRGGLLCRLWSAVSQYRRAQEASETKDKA
Sequence of Calcium/calmodulin-dependent protein kinase type II subunit delta (Homo sapiens) (Q13557 whole entry): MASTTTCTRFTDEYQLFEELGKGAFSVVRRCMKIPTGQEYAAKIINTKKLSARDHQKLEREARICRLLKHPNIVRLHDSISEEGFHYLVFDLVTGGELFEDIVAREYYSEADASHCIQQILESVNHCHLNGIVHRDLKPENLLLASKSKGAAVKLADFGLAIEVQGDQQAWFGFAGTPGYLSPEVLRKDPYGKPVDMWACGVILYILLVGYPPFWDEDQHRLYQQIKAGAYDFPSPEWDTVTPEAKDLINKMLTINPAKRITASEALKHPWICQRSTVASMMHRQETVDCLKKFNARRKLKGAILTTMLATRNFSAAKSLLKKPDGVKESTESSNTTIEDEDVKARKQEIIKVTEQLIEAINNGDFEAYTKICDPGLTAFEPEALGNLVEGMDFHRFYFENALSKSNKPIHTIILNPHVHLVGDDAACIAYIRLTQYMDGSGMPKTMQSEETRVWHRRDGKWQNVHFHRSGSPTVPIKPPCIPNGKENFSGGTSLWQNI
Sequence of Serine/threonine-protein kinase MARK2 (Homo sapiens) (Q7KZI7 whole entry): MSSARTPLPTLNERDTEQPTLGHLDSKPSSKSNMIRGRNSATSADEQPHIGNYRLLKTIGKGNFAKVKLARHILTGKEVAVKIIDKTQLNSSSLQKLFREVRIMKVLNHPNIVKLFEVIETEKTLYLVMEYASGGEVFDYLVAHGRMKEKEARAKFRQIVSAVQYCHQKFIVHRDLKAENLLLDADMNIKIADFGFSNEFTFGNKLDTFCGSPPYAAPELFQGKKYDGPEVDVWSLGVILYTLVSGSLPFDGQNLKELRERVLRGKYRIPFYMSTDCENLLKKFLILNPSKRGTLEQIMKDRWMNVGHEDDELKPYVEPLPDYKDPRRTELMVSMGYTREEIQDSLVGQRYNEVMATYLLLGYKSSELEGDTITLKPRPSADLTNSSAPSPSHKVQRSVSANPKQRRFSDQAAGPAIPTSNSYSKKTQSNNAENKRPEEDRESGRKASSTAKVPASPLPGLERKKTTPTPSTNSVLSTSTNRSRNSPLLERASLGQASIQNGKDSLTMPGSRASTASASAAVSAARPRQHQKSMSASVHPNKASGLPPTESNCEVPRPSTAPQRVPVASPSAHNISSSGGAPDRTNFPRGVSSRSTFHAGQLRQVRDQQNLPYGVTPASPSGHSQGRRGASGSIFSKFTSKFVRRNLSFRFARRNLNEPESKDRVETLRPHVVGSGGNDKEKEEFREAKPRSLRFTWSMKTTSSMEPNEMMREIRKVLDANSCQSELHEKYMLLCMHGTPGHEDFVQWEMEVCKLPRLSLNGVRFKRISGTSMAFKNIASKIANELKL
Sequence of Serine/threonine-protein kinase Chk2 (Homo sapiens) (O96017 whole entry): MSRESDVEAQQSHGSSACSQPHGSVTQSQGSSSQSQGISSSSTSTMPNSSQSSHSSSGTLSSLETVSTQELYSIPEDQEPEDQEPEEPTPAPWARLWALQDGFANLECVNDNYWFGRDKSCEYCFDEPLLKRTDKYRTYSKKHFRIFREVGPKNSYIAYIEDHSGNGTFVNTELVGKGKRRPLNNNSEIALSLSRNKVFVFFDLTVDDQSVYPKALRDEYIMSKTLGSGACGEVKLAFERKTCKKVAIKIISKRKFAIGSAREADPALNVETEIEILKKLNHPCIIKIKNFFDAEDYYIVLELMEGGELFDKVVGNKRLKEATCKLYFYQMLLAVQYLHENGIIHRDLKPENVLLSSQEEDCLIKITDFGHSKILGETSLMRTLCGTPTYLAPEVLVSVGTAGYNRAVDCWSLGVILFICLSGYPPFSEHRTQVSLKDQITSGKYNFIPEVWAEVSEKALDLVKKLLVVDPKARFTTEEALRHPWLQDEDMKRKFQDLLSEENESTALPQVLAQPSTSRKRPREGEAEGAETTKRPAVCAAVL
Sequence of Calcium/calmodulin-dependent protein kinase kinase 1 (Homo sapiens) (Q8N5S9 whole entry, looked up): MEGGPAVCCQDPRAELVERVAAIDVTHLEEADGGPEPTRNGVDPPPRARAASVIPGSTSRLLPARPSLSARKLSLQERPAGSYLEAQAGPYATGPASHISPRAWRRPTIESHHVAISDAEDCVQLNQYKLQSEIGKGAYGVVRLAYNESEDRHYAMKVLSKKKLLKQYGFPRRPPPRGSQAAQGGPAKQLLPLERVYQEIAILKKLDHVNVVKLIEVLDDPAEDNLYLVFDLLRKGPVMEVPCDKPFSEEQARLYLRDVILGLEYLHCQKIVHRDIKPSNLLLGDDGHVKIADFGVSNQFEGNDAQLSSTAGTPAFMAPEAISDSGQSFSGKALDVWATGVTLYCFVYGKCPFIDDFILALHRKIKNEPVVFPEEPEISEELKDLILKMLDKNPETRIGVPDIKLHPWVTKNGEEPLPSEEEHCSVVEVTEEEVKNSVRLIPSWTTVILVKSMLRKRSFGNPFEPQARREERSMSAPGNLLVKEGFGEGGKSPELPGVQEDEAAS
Sequence of Interferon-induced, double-stranded RNA-activated protein kinase (Homo sapiens) (P19525 whole entry): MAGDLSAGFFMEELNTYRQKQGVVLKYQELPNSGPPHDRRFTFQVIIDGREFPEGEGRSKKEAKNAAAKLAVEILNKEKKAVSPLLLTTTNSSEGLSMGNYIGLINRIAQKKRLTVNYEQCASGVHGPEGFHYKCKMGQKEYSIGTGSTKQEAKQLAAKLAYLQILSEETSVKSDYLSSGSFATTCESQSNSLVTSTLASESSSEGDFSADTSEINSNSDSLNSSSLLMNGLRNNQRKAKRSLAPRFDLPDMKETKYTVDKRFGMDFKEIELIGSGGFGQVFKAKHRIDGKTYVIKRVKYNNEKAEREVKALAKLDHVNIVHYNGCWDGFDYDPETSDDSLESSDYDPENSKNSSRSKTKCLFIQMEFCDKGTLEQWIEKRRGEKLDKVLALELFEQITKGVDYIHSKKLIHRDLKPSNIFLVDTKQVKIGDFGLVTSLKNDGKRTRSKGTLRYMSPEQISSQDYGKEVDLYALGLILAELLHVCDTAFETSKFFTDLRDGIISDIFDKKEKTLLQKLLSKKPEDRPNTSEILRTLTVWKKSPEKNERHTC
Sequence of Serine/threonine-protein kinase Sgk2 (Homo sapiens) (Q9HBY8 whole entry): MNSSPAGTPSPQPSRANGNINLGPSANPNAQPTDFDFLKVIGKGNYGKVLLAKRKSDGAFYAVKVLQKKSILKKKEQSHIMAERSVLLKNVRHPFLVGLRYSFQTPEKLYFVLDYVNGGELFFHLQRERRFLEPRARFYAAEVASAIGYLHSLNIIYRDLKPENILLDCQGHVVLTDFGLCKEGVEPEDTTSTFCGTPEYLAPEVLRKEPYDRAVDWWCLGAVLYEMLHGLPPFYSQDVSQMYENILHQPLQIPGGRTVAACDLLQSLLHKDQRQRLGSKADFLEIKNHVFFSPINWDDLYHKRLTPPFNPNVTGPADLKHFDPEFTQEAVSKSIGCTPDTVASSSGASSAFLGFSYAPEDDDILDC

CO[C@@H](C)c1c(Nc2ccc([C@@H](N(C)C(=O)C3CCS(=O)(=O)CC3)C(F)(F)F)cc2)cnc2cc(Cl)nn12 [NVS-MALT1-C]
inactive: residual activity [1] 96% | residual activity [2] 96% | residual activity [3] 100% | residual activity [4] 83% | residual activity [5] 100% | residual activity [6] 100% | residual activity [7] 98% | residual activity [8] 88% | residual activity [9] 100% | residual activity [10] 97% | residual activity [11] 95% | residual activity [12] 93% | residual activity [13] 100% | residual activity [14] 100% | residual activity [15] 91% | residual activity [16] 100% | residual activity [17] 81% | residual activity [18] 90% | residual activity [19] 92% | residual activity [20] 100% | residual activity [21] 100% | residual activity [22] 100% | residual activity [23] 98% | residual activity [24] 100% | residual activity [25] 94% | residual activity [26] 100% | residual activity [27] 79% | residual activity [28] 100% | residual activity [29] 100% | residual activity [30] 99% | residual activity [31] 100% | residual activity [32] 97% | residual activity [33] 62% | residual activity [34] 98% | residual activity [35] 100% | residual activity [36] 100% | residual activity [37] 58% | residual activity [38] 88% | residual activity [39] 83% | residual activity [40] 70% | residual activity [41] 89% | residual activity [42] 99% | residual activity [43] 100% | residual activity [44] 84% | inhibition [45] 3.25%

CO[C@@H](C)c1c(Nc2ccc([C@H](N(C)C(=O)C3CCS(=O)(=O)CC3)C(F)(F)F)cc2)cnc2cc(Cl)nn12 [NVS-MALT1]
active: residual activity [33] 48%
inactive: residual activity [1] 84% | residual activity [2] 95% | residual activity [3] 100% | residual activity [4] 99% | residual activity [5] 100% | residual activity [6] 86% | residual activity [7] 80% | residual activity [8] 90% | residual activity [9] 90% | residual activity [10] 94% | residual activity [11] 90% | residual activity [12] 100% | residual activity [13] 90% | residual activity [14] 100% | residual activity [15] 91% | residual activity [16] 92% | residual activity [17] 87% | residual activity [18] 88% | residual activity [19] 85% | residual activity [20] 100% | residual activity [21] 72% | residual activity [22] 100% | residual activity [23] 100% | residual activity [24] 100% | residual activity [25] 99% | residual activity [26] 100% | residual activity [27] 87% | residual activity [28] 100% | residual activity [29] 75% | residual activity [30] 93% | residual activity [31] 100% | residual activity [32] 100% | residual activity [34] 92% | residual activity [35] 88% | residual activity [36] 100% | residual activity [37] 91% | residual activity [38] 96% | residual activity [39] 74% | residual activity [40] 88% | residual activity [41] 79% | residual activity [42] 91% | residual activity [43] 100% | residual activity [44] 87% | inhibition [45] -4.22%
